Experimental findings from patent US12258611B2, “Device for detecting tomato pathogenic fungus and detection method using the same” (Panasonic Intellectual Property Management Co., Ltd., priority 2018, dated 2025) are described below.

What all share (test): hyphae penetrating the artificial cell wall, fludioxonil in culture solution
What all share (assay type): cell-based

In one experiment the test system is Penicillium olsonii. Particulars: Comparative Example 1, fludioxonil 133 mg/L, 25° C., 72 hours. The source says: (§1) Biscogniauxia maritima, Penicillium olsonii, Phoma multirostrata, and Trichoderma asperellum, which are not tomato pathogens but were present on tomato leaves, were sampled from the tomato leaves, isolated, and then inoculated onto a potato dextrose agar medium. The tomato plants serving as the isolation sources were sampled at a plurality of sites. The isolation method was as follows: into a clean resin container or resin bag, several tomato leaves sampled were placed together with a fungus collection solution composed of physiological saline containing 0.1% surfactant Tween 80 (SIGMA-ALDRICH), and stirred for 1 minute to transfer the fungi adhering to the leaves to the fungus collection solution; this fungus collection solution was diluted, and applied to a potato dextrose agar medium containing 100 mg/L of streptomycin sulfate (Wako) by the spread plate culture technique; subsequently, the medium was incubated at 25° C. for several days and, from the produced fungus colonies, the isolation was performed. We requested Tama Laboratory, (general incorporated association) Japan Food Research Laboratories to perform identification. The above-described Biscogniauxia maritima, Penicillium olsonii, Phoma multirostrata, and Trichoderma asperellum isolated and then inoculated onto the potato dextrose agar medium were left static at a temperature of 25° C. for a week. Subsequently, to the potato dextrose agar medium on which the four species of fungi were cultured with sufficient hyphal growth or sufficient sporulation, several milliliters of sterile pure water was dropped; the surface of the hyphae was rubbed with, for example, a platinum loop or a brush, to obtain a disintegrated hypha-spore mixed suspension.
(§2) The above-described container having, at the bottom surface, the artificial cell wall including the polyethylene terephthalate film (substrate) having, on its back surface, the cellulose membrane was placed on a culture medium container (culture-solution storage), to provide a device for detecting a tomato pathogenic fungus. […]

The next experiment has as its system Phoma multirostrata. As to conditions: Comparative Example 1, fludioxonil 133 mg/L, 25° C., 72 hours.
Text: as §1, §2

Another experiment concerns Biscogniauxia maritima. As to conditions: Comparative Example 1, fludioxonil 133 mg/L, 25° C., 72 hours.
Text: as §1, §2

For another experiment, the system named is Botrytis cinerea. Particulars: 25° C., 72 hours. How it is done: Botrytis cinerea, which is one of tomato pathogens and is a pathogenic fungus that causes tomato gray mold, was inoculated onto a potato dextrose agar medium (Difco™ Potato Dextrose Agar). Subsequently, the medium was left static at a temperature of 25° C. for a week. The Botrytis cinerea was given by Associate Professor Shimizu, Faculty of Applied Biological Sciences, Gifu University. Subsequently, the potato dextrose agar medium having cultured Botrytis cinerea with sufficient hyphal growth was left under irradiation with black light for four days or longer, and subsequently left in a room-temperature environment for two weeks or longer, to promote sporulation. To the resultant potato dextrose agar medium having cultured Botrytis cinerea, several milliliters of sterile pure water was dropped, and the surface of the hyphae was rubbed with, for example, a platinum loop or a brush, to obtain a disintegrated hypha-spore mixed suspension.
(§3) The above-described container having, at the bottom surface, the artificial cell wall including the polyethylene terephthalate film (substrate) having, on its back surface, the cellulose membrane was placed on a culture medium container (culture-solution storage), to provide a device for detecting a tomato pathogenic fungus. The culture medium container was a 24-well flat-bottom culture plate (Corning Incorporated, trade name: 24 Well Cell Culture Cluster Flat Bottom). […]
(§4) Subsequently, sterile purified water was added such that the total volume with such a disintegrated hypha-spore mixed suspension became 200 μL. The tomato-pathogenic-fungus selection method device in which the seven species of fungi were added was left to stand at a temperature of 25° C. for 72 hours, and the number of hyphae penetrating the artificial cell wall and observed at the back surface was visually counted using an optical microscope. […]

Another experiment relates to Trichoderma asperellum.
Text: as §1, §2

In a further experiment the test system is Passalora fulva. Particulars: 25° C., 72 hours. How it is done: Passalora fulva, which is one of tomato pathogens and is a pathogenic fungus that causes tomato leaf mold, was inoculated onto a potato dextrose agar medium. Subsequently, the medium was left static at a temperature of 23° C. for one to two weeks. Passalora fulva was distributed by The Genetic Resources Center, The National Agriculture and Food Research Organization (MAFF No. 726744). Subsequently, to the potato dextrose agar medium having cultured Passalora fulva with sufficient hyphal growth, several milliliters of sterile pure water was dropped, and the surface of the hyphae was rubbed with, for example, a platinum loop or a brush, to obtain a disintegrated hypha-spore mixed suspension.
as §3, with “Bottom). Between the culture medium container and the artificial-cell-wall-formed container, 600 μL of a liquid culture medium (culture solution) was charged so as to be in contact with the back surface of the artificial-cell-wall-formed container.” for “Bottom).”
as §4

Experiment [1] has as its system Pseudocercospora fuligena. Particulars: 25° C., 72 hours. The protocol: Pseudocercospora fuligena, which is one of tomato pathogens and is a pathogenic fungus that causes tomato Cercospora leaf mold, was inoculated onto a potato dextrose agar medium. Subsequently, the medium was left static at a temperature of 28° C. for a week. Pseudocercospora fuligena was distributed by The Genetic Resources Center, The National Agriculture and Food Research Organization (MAFF No. 306728). Subsequently, hyphae of Pseudocercospora fuligena were transferred from the potato dextrose agar medium to a burdock root powder agar medium, further left static for one to two weeks at a temperature of 28° C.; after hyphae sufficiently grew again, the surface of the hyphae was subjected to a mechanical stress such as rubbing with, for example, a platinum loop or a brush; subsequently, the medium was left under irradiation with black light for four days or longer, subsequently left in a room-temperature environment for two weeks or longer, to promote sporulation again. To the resultant burdock root powder agar medium having cultured Pseudocercospora fuligena, several milliliters of sterile pure water was dropped, and the surface of the hyphae was rubbed with, for example, a platinum loop or a brush, to obtain a disintegrated hypha-spore mixed suspension.
as §2, §4

[2] abbreviates: Comparative Example 1, fludioxonil 133 mg/L.
The mark [3] stands for this setting: Example 1, fludioxonil 0.5 mg/L.
[4] abbreviates: Example 2, fludioxonil 1.3 mg/L.

Turning to `N#Cc1c[nH]cc1-c1cccc2c1OC(F)(F)O2` [fludioxonil], the “hyphae penetrating the artificial cell wall” value is “not observed” with Penicillium olsonii; “not observed” in the experiment with Phoma multirostrata; “not observed” with Biscogniauxia maritima; “not observed” with Botrytis cinerea (setting [2]); “had hyphae penetrating the artificial cell wall” in the experiment with Botrytis cinerea (setting [3]); “had hyphae penetrating the artificial cell wall” in the experiment with Botrytis cinerea (setting [4]). Also, the “hyphae penetrating the artificial cell wall” value in the experiment on Trichoderma asperellum (Comparative Example 1, fludioxonil 133 mg/L, 25° C., 72 hours) is on record as “not observed”; in the experiment with Passalora fulva (setting [2]) it was “not observed”; in the experiment with Passalora fulva (setting [3]) it was “had hyphae penetrating the artificial cell wall”; in the experiment with Passalora fulva (setting [4]), “had hyphae penetrating the artificial cell wall”; in experiment [1] (setting [2]) it was “not observed”; in experiment [1] (setting [3]) it was “had hyphae penetrating the artificial cell wall”. The “hyphae penetrating the artificial cell wall” value in experiment [1] (setting [4]) is “had hyphae penetrating the artificial cell wall”. Further, the “effect of excluding Trichoderma asperellum (number of hyphae penetrating the artificial cell walls)” value in the experiment with Trichoderma asperellum (Comparative Example 2, fludioxonil 0.1 mg/L (1/1000 of the concentration that provides the agricultural chemical effect)) is on record as “not observed”. Also, in the experiment with Trichoderma asperellum (Comparative Example 2, fludioxonil 0.5 mg/L (1/250 of the concentration that provides the agricultural chemical effect)), the “growth of Trichoderma asperellum (number of hyphae penetrating the artificial cell walls)” value is reported as “inhibited”.
